Measured values as given in ChEMBL document CHEMBL1148572, “1-((S)-2-aminopropyl)-1H-indazol-6-ol: a potent peripherally acting 5-HT2 receptor agonist with ocular hypotensive activity” (J Med Chem, 2006).
pEC50, pKi: −log10 of the molar value.

Tests used:
[1] = biological target: Glutamate receptor ionotropic kainate (Homo sapiens) (UniProt P39086+Q16478+Q16099+Q13002+Q13003); test: Inhibition of kainate receptor at 1 nM; type: protein-complex assay
[2] = Inhibitory activity at site 2 of sodium channel at 1 nM
[3] = Inhibition of non selective binding to VIP at 10 uM
[4] = biological target: 5-hydroxytryptamine receptor 6 (Homo sapiens, UniProt P50406); test: Inhibitory activity against 5HT6 receptor
[5] = Inhibitory activity at calcium activated potassium channel 6 at 10 uM
[6] = biological target: T1, monoamine oxidase A (MAO-A) (Rattus norvegicus, UniProt P21396); test: Inhibition of monoamine oxidase A in rat brain at 100 nM; type: tissue-based
T1 sequence (P21396 whole entry): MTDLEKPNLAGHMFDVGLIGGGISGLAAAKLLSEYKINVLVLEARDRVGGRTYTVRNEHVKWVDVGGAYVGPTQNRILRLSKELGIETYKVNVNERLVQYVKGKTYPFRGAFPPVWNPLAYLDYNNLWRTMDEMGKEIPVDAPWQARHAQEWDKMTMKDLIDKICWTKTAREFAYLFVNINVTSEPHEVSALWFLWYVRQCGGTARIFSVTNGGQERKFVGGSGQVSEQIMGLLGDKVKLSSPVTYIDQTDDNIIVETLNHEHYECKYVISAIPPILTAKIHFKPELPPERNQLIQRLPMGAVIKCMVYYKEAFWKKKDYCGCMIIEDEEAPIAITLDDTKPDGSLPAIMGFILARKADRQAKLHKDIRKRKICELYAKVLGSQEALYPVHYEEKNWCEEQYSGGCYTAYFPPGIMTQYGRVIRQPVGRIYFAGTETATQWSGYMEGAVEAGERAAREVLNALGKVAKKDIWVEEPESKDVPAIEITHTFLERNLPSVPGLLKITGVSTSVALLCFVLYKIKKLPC

[7] = Inhibitory activity at site 2 of sodium channel at 100 nM
[8] = Inhibition of P2Y purinergic receptor at 10 uM
[9] = tested on: MDR1 (P-gp); test: Permeability from basolateral to apical side of the MDCK cell transfected with human MDR1; type: ADME, cell-based
[10] = species: Homo sapiens; test: Inhibition of inositol triphosphate IP3 at 100 nM; type: functional
[11] = biological target: Sigma non-opioid intracellular receptor 1 (Homo sapiens) (UniProt Q99720); test: Inhibition of non selective binding to sigma receptor at 1 nM
[12] = biological target: Alpha-1B adrenergic receptor (Homo sapiens, UniProt P35368); test: Inhibitory activity against adrenergic alpha-1B receptor
[13] = biological target: T2, Alpha-2A adrenergic receptor (Homo sapiens, UniProt P08913); test: Activity at adrenergic alpha2A receptor expressed in human clonic adenocarcinoma HT29 cell by […]; type: functional, cell-based, HT-29
T2 sequence (P08913 whole entry): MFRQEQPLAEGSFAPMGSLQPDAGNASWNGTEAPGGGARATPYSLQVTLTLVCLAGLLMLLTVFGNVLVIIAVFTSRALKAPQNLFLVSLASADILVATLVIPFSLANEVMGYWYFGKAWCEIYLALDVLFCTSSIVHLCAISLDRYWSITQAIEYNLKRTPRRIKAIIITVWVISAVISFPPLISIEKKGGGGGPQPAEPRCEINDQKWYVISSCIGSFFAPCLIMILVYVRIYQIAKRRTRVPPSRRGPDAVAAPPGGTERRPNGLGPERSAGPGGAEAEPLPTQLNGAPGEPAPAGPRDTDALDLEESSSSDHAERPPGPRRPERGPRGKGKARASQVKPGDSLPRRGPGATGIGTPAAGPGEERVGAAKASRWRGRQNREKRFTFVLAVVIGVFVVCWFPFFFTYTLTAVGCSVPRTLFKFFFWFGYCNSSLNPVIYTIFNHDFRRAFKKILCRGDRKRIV

[14] = biological target: Protein kinase C, PKC; classical/novel (Homo sapiens) (UniProt O94806+P17252+P05129+Q05655+P05771+Q02156+P24723+Q15139+Q04759); test: Inhibition of PDBu activated protein kinase C at 100 nM; type: protein assay
[15] = biological target: Epidermal growth factor receptor (Homo sapiens) (UniProt P00533); test: Inhibition of EGFR at 100 nM
[16] = species: Homo sapiens; test: Inhibition of inositol triphosphate IP3 at 10 uM; type: functional
[17] = biological target: T3, 5-hydroxytryptamine receptor 2C (Rattus norvegicus) (UniProt P08909); test: Activity against recombinant rat 5HT2C mediated intracellular calcium mobilization by FLIPR in SR3T3 cells
T3 sequence (whole entry): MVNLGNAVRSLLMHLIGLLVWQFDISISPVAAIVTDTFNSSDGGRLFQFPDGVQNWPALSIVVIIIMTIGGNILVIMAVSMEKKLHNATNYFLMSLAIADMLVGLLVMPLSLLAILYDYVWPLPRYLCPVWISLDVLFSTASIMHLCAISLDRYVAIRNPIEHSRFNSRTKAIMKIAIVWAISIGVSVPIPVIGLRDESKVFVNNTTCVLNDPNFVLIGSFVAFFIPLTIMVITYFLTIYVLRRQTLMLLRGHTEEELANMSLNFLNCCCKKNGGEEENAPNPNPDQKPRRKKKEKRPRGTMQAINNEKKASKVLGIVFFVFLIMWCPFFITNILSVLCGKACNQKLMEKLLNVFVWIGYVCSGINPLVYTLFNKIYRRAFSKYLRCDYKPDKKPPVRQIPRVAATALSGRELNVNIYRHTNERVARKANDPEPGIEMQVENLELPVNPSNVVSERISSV

[18] = biological target: Glutamate [NMDA] receptor (Homo sapiens) (UniProt Q05586+Q12879+Q13224+O15399+O60391+Q14957+Q8TCU5); test: Inhibition of agonist site of NMDA receptor at 1 nM; type: functional
[19] = biological target: Leukotriene B4 receptor (Homo sapiens) (UniProt Q9NPC1+Q15722); test: Inhibition of leukotriene B4 at 1 nM; type: protein assay
[20] = biological target: GABA-A receptor; agonist GABA site (Homo sapiens) (UniProt P14867+P47870+P28472+P48169+P34903+P18505+P47869+P31644+Q16445); test: Inhibition of agonist site of GABAA receptor at 100 nM; type: functional
[21] = Inhibitory activity at TBOB site in GABA gated chloride channel at 100 nM

Epidermal growth factor receptor (Homo sapiens), sequence (P00533 whole entry): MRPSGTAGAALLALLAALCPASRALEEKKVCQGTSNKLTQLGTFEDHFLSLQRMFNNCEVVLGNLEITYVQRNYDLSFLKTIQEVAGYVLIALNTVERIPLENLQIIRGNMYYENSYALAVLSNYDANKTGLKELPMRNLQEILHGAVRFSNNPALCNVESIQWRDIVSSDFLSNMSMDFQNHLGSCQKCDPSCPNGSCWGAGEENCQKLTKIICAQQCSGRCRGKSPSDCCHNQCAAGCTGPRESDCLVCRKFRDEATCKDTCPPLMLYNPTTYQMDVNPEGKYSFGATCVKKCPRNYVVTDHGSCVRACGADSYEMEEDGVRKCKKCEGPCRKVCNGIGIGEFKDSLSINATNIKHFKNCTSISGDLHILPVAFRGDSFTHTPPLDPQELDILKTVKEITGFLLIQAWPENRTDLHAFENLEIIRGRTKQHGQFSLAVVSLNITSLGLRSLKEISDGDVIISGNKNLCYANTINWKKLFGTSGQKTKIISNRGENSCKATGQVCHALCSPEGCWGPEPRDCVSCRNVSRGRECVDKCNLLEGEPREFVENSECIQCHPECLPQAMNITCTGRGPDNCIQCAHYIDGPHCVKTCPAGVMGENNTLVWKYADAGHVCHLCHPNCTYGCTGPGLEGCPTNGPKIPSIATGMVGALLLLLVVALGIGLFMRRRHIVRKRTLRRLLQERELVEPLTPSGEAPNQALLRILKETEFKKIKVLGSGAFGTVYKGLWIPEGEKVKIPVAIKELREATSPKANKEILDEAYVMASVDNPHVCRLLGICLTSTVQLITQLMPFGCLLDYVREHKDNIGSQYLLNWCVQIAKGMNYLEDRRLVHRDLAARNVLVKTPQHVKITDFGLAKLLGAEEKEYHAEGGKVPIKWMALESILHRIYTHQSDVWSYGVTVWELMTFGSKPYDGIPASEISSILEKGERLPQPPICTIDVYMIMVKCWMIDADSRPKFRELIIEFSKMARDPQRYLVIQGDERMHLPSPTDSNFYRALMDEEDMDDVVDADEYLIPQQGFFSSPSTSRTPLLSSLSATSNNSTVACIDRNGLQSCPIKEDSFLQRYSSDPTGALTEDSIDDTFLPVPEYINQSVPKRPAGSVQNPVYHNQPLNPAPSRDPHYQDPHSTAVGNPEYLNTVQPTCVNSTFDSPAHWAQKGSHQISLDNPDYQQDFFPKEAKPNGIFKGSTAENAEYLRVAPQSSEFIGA
5-hydroxytryptamine receptor 6, sequence (P50406 whole entry): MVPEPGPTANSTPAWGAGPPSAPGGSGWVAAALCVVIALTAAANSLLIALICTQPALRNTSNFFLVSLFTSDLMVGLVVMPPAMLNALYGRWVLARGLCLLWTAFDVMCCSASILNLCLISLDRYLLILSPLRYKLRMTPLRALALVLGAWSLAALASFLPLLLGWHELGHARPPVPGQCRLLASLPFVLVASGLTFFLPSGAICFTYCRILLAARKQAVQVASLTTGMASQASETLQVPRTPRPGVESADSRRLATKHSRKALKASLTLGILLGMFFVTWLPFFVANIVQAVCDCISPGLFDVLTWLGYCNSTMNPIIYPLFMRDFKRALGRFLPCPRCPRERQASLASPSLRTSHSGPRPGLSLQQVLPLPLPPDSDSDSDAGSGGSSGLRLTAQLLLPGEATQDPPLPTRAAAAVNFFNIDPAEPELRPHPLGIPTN
Alpha-1B adrenergic receptor, sequence (P35368 whole entry): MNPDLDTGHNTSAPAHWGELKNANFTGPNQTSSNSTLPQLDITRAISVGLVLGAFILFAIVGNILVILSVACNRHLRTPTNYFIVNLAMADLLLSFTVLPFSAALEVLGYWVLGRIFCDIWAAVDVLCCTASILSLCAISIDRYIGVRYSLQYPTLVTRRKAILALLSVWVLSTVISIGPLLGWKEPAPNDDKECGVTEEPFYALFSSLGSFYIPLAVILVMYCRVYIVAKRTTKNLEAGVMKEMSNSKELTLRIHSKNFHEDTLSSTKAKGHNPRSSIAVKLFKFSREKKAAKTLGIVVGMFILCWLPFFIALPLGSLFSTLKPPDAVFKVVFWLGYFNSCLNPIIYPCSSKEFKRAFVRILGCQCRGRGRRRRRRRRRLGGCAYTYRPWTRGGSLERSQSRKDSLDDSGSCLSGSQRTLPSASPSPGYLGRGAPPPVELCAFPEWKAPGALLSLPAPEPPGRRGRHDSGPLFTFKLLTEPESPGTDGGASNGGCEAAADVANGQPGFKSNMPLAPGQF
Leukotriene B4 receptor (Homo sapiens), sequence (Q15722 whole entry, looked up): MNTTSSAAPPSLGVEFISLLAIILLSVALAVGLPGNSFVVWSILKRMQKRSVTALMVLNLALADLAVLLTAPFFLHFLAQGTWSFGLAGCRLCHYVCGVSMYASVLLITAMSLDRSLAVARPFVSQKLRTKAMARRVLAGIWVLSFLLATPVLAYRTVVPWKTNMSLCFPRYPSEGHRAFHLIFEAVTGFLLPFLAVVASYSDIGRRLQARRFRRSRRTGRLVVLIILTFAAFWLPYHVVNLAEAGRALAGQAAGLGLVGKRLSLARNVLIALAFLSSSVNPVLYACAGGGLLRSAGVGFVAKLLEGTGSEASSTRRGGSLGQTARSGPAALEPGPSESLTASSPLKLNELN
Leukotriene B4 receptor (Homo sapiens), sequence (Q9NPC1 whole entry, looked up): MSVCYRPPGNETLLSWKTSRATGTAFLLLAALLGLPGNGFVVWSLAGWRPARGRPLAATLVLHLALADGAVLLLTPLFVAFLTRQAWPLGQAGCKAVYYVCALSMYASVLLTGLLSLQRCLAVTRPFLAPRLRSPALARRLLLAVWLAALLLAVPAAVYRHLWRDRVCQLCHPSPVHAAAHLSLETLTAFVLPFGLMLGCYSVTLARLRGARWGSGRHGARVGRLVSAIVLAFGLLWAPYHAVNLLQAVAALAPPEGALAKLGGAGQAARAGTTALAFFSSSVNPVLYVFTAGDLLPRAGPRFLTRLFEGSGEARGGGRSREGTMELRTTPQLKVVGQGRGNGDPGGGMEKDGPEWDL
Sigma non-opioid intracellular receptor 1 (Homo sapiens), sequence (Q99720 whole entry): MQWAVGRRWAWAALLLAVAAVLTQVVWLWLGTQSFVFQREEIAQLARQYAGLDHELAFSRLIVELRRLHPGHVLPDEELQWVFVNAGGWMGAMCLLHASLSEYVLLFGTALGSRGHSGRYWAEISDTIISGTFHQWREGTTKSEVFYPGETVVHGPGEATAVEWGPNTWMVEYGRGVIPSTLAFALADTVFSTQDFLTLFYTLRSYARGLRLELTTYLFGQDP

`C[C@H](N)Cn1ncc2ccc(O)cc21` showed an inhibition [1] of 12%, an inhibition [2] of 10.3% and an inhibition [3] of -5.59%. It also gave a pKi [4] of less than 5.00, an inhibition [5] of -8.15% and an inhibition at 0.1 µM [6] of -22.3%. It also gave an inhibition [7] of 5.17%, an inhibition [8] of 12.2% and a Papp B→A [9] of 0.88 ×10⁻⁶ cm/s. The inhibition [10] was 8.56%, the inhibition [11] was -2.35% and the pKi [12] was less than 4.52. For the same compound, the pEC50 [13] was 5.59, the inhibition [14] was 11.3% and the inhibition [15] was 1.86%. The inhibition [16] was 2.11%, the Emax [17] was 89% and the inhibition [18] was 14.9%. It also gave an inhibition [19] of 0.44%, an inhibition [20] of -0.91% and an inhibition [21] of -5.9%.
